Measured values: patent publication US4464359A, “(2'-5')-Oligo (3'-deoxyadenylate) and derivatives thereof” (Research Corporation, priority 1981, dated 1984)
Values joined by “and” are separate entries in the source; they are usually repeats but may differ in a detail not shown here. Identical values can stand only once. Like-named read-outs stand apart in the source and are kept apart here.

Columns and labels:
[1] = Stability (hydrolysis) in HeLa cell extracts; format: in vitro ADME; conditions: 500 μM; cellulose tlc (solvents A and B)
Experimental: FIG. 2 is a stability representation of (2'-5')p3 A(pA)n and (2'-5')p3 3'dA(p3'dA)n in HeLa cell extracts.
The stability of (2'-5')ppp3'dA(p3'dA)n in HeLa cell extracts was compared to that of (2'-5')pppA(pA)n. […] With 500 μM (2'-5')pppA(pA)n, there was a 50% hydrolysis in 45 min as determined by DEAE cellulose chromatography; with 500 μM authentic core analog, (2'-5')3'dA(p3'dA)2, there was no hydrolysis as determined by cellulose tlc (solvents A and B). Neither cordycepin nor 3'dAMP was detected. The lack of hydrolysis of the analog may be similar to the lack of hydrolysis of (3'-5')2'-deoxyoligonucleotides by the 2',5'-phosphodiesterase.

Epstein-Barr Virus (EBV) [2] = assay: EBV-induced stimulation of DNA synthesis in EBV infected human lymphocytes; format: cell-based
Experimental: (§1) Heparinized whole venous blood was obtained from the umbilical cords of newborn infants (human umbilical cord lymphocytes) or EBV-seronegative volunteers (peripheral blood lymphocytes) in collaboration with Temple University Hospital, Philadelphia, PA. Mononuclear leukocytes were prepared by the Ficoll-Hypaque method of Boyum (Scand. J. Clin. Invest. 21 (Sup. 97), 77 (1968)) and were cultured in RPMI-1640 supplemented with 20% fetal bovine serum as described (Henderson et al, Virology 76, 152 (1977)). The lymphoblastoid cell lines BJAB and RAJI were gifts of Drs. Werner and Gertrude Henle, Children's Hospital, University of Pennsylvania, Philadelphia, PA, and were cultured as described above. The lymphoblastoid line C85-5C was obtained by transformation of human umbilical cord lymphocytes following infection with EBV and maintained as described aove. Cultured mouse L cells were maintained in minimum essential medium (Eagle) supplemented with Earle's salts, L-glutamine and 6% fetal bovine serum. Interferon-treated mouse L cells were supplied by Dr. Esther H. Chang, National Cancer Institute, NIH. […] EBV stocks were maintained at -70° C. until use. Human umbilical cord lymphocytes and peripheral blood lymphocytes were infected as described (Henderson et al, Supra).

uninfected lymphocytes = assay: DNA synthesis of uninfected lymphocytes; format: cell-based, human
Experimental: as §1
(§2) The antiviral properties of 5'-dephosphorylated "core" (2'-5')A(pA)2, (2'-5')A(pA)3 and (2'-5')3'dA-(p3'dA)2 were compared to the antiviral properties of IFN-α and IFN-β. The (2'-5')oligonucleotides and interferons inhibited Epstein-Barr Virus (EBV)-induced stimulation of DNA synthesis in EBV infected human lymphocytes. […] The "core" 3'-deoxy (2'-5') oligonucleotide analog inhibited EBV-induced morphological transformation of lymphocytes much the same as "core" (2'-5')A(pA)2 and (2'-5')A(pA)3.

Epstein-Barr Virus (EBV) [3] = assay: EBV-induced morphological transformation of lymphocytes; format: cell-based; conditions: absence of interferon
Experimental: as §1, §2

[4] = system: Herpes Simplex Virus Type 1 (HSV-1); assay: Infected centers assay: HSV-1 exposed leukocytes plated onto human foreskin fibroblast monolayers, cytopathic effects (cpe); format: cell-based; conditions: for development of cpe from HSV-1 infected leukocytes / HSV-1 replication: 72 hr incubation, human foreskin fibroblast monolayers
Experimental: Therefore, we employed an infected centers assay utilizing lymphocytes to determine the ability of (2'-5') oligonucleotides to inhibit HSV-1. After incubation for 72 hr with or without (2'-5')oligonucleotides, leukocytes exposed to HSV-1 were plated onto human foreskin fibroblast monolayers (Table 2).

[5] = system: BJAB lymphoblastoid cell line; assay: Cytotoxicity by colony formation in microtiter plates, BJAB; format: cell-based; conditions: for Concentration at which colony formation was inhibited by greater than 50 percent: treatment for 7 days
Experimental: as §1
(§3) Therefore, the effect of these agents on colony formation in closely related lymphoblastoid cell lines was determined (Table 3).

[6] = system: Raji lymphoblastoid cell line; assay: Cytotoxicity by colony formation in microtiter plates, Raji; format: cell-based; conditions: for Concentration at which colony formation was inhibited by greater than 50 percent: treatment for 7 days
Experimental: as §1, §3

[7] = system: C85-5C lymphoblastoid cell line; assay: Cytotoxicity by colony formation in microtiter plates, C85-5C; format: cell-based, human; conditions: treatment for 7 days
Experimental: as §1, with “Human umbilical cord lymphocytes and peripheral blood lymphocytes were infected as described (Henderson et al, Supra).” left out
as §3

[8] = system: lymphoblastoid cell lines; assay: Lymphoblast colony formation / cytotoxicity, cell line not given; format: cell-based
Experimental: as §1, with “Mononuclear leukocytes were prepared by the Ficoll-Hypaque method of Boyum (Scand. J. Clin. Invest. 21 (Sup. 97), 77 (1968)) and were cultured in RPMI-1640 supplemented with 20% fetal bovine serum as described (Henderson et al, Virology 76, 152 (1977)).” left out
as §3

Molecule	EBV-induced stimulation of DNA synthesis (Epstein-Barr Virus (EBV) [2])	DNA synthesis of uninfected lymphocytes (uninfected lymphocytes)	EBV-induced morphological transformation of lymphocytes (Epstein-Barr Virus (EBV) [3])	cpe at given number of HSV-exposed leukocytes per cell ([4]; 10 μM, 2 × 10^5 leukocytes)	cpe at given number of HSV-exposed leukocytes per cell ([4]; 10 μM, 2.2 × 10^4 leukocytes)	cpe at given number of HSV-exposed leukocytes per cell ([4]; 10 μM, 6.7 × 10^4 leukocytes)	cpe at given number of HSV-exposed leukocytes per cell ([4]; 50 μM, 2 × 10^5 leukocytes)	cpe at given number of HSV-exposed leukocytes per cell ([4]; 50 μM, 2.2 × 10^4 leukocytes)	cpe at given number of HSV-exposed leukocytes per cell ([4]; 50 μM, 6.7 × 10^4 leukocytes)	cpe at given number of HSV-exposed leukocytes per cell ([4]; 75 μM, 2 × 10^5 leukocytes)	cpe at given number of HSV-exposed leukocytes per cell ([4]; 75 μM, 2.2 × 10^4 leukocytes)	cpe at given number of HSV-exposed leukocytes per cell ([4]; 75 μM, 6.7 × 10^4 leukocytes)	cpe at given number of HSV-exposed leukocytes per cell ([4]; 150 μM, 2.2 × 10^4 leukocytes)	development of cpe from HSV-1 infected leukocytes / HSV-1 replication [4]	concentration found toxic (inhibition of colony formation) [5]	Concentration at which colony formation was inhibited by greater than 50 percent [5] [µM]	concentration found toxic (inhibition of colony formation) [6]	Concentration at which colony formation was inhibited by greater than 50 percent [6] [µM]	cpe at given number of HSV-exposed leukocytes per cell ([4]; 150 μM, 2 × 10^5 leukocytes)	cpe at given number of HSV-exposed leukocytes per cell ([4]; 150 μM, 6.7 × 10^4 leukocytes)	other results
Nc1ncnc2c1ncn2[C@@H]1O[C@H](COP(=O)(O)O[C@@H]2C[C@@H](COP(=O)(O)O[C@@H]3C[C@@H](CO)O[C@H]3n3cnc4c(N)ncnc43)O[C@H]2n2cnc3c(N)ncnc32)C[C@H]1O [(2'-5')3'dA(p3'dA)2, 3'-deoxyadenylyl (2'-5')3'-deoxyadenylyl(2'-5')3'-deoxyadenosine]	inhibited only viral-induced DNA synthesis	inhibited only viral-induced DNA synthesis	inhibited	+++	+	++	++	+	++	++	0	+	0	less effective in inhibiting the development of cpe	no toxicity	> 300	no toxicity	> 300			hydrolysis in HeLa cell extracts [1]: no hydrolysis; concentration found toxic (inhibition of colony formation) ([5]; listed as (2'-5')2'dA(p3'dA)3): > 300 µM; concentration found toxic (inhibition of colony formation) ([6]; listed as (2'-5')2'dA(p3'dA)3): > 300 µM
Nc1ncnc2c1ncn2[C@@H]1O[C@H](COP(=O)(O)O[C@@H]2[C@H](O)[C@@H](COP(=O)(O)O[C@@H]3[C@H](O)[C@@H](CO)O[C@H]3n3cnc4c(N)ncnc43)O[C@H]2n2cnc3c(N)ncnc32)[C@@H](O)[C@H]1O [(2'-5')A(pA)2, adenylyl-(2'-5')adenylyl(2'-5')adenosine]	potent inhibitors	potent inhibitors	inhibited	+++	0	++	++	0	++	++	0	0	0	inhibited the development of cpe	150 to 300 µM and 300 µM	150 to 300	150 to 300 µM and 300 µM	300	+	0	
Nc1ncnc2c1ncn2[C@@H]1O[C@H](COP(=O)(O)O[C@@H]2[C@H](O)[C@@H](COP(=O)(O)O[C@@H]3[C@H](O)[C@@H](COP(=O)(O)O[C@@H]4[C@H](O)[C@@H](CO)O[C@H]4n4cnc5c(N)ncnc54)O[C@H]3n3cnc4c(N)ncnc43)O[C@H]2n2cnc3c(N)ncnc32)[C@@H](O)[C@H]1O [(2'-5')A(pA)3, adenylyl(2'-5')adenylyl(2'-5')-adenylyl (2'-5')adenosine]	potent inhibitors	potent inhibitors	inhibited	++	0	+	+	0	0	++	0	0	0	inhibited the development of cpe		150		50	+	0	
IFN-α	inhibited																				Concentration at which colony formation was inhibited by greater than 50 percent [7]: > 1000 U/ml; cytotoxicity / effect on lymphoblast colony formation [8]: no appreciable effect
